How the values were obtained:
[1] = system: Nc1nc2c(ncn2[C@@H]2O[C@H](COP(=O)(O)OP(=O)(O)OP(=O)(O)O)[C@@H](O)[C@H]2O)c(=O)[nH]1; test: purified protein; type: biochemical, Mycolicibacterium austroafricanum; conditions: pH 7.5; 30.0 °C
Mak^Mvan [2] = target: T1, Mak^Mvan (Mycolicibacterium austroafricanum, UniProt A1TH50); test: X-ray crystal structure, […] Å; type: binding; set-up: full length (model Thr2-Gly441), C-terminal linker and His-tag kept, 454 residues in all; pET30a, NdeI/HindIII, E. coli; monomer; conditions: co-crystallised with 4 mM AppCp, two Mg2+; nucleotide site, two conformations
Mak^Mvan [3] = target: T1, Mak^Mvan

T1 sequence (A1TH50 whole entry): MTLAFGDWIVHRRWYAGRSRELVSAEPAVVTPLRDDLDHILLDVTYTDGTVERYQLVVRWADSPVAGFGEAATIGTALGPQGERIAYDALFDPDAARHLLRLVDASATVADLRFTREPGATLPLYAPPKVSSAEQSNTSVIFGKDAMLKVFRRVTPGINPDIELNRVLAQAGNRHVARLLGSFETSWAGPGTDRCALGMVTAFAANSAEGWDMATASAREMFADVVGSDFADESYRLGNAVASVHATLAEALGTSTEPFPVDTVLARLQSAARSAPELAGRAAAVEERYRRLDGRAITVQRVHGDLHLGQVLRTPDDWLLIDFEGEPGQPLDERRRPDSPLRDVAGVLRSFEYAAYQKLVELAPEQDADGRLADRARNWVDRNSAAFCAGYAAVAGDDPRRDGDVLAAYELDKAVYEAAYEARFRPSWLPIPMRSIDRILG

(Mycolicibacterium vanbaalenii PYR-1)
Km [1]: 5.8 ± 1.4 mM

Nc1ncnc2c1ncn2[C@@H]1O[C@H](COP(=O)(O)OP(=O)(O)CP(=O)(O)O)[C@@H](O)[C@H]1O [AppCp, adenosine-5′-[(β,γ)-methyleno] triphosphate]
X-ray crystal structure, 1.15 Å (Mak^Mvan [2]): structure of Mak^Mvan in complex with the non-hydrolysable ATP analog

Nc1ncnc2c1ncn2[C@@H]1O[C@H](COP(=O)(O)OP(=O)(O)OP(=O)(O)O)[C@@H](O)[C@H]1O [ATP]
X-ray crystal structure, 1.71 Å (Mak^Mvan [3]): 4WZY (Mak^Mvan:ATP complex)

Reference: publication PMC4306142, “Structure of mycobacterial maltokinase, the missing link in the essential GlgE-pathway” (Scientific Reports, 2015)
